Source: ChEMBL document CHEMBL1201862, “PubChem BioAssay data set” (2004)
The source made the active and inactive calls.

How the values were obtained:
Escherichia coli = experiment: microbe, parasite or virus in culture
[1] = Luminescence Cell-Based Dose Retest to Confirm Inhibitors of Cancer Stem Cells. [Related pubchem assays (depositor defined):AID2717, AID2721]; assay type: functional; conditions: Homo sapiens
Cysteine protease ATG4B = Cysteine protease ATG4B (Homo sapiens, UniProt Q9Y4P1); experiment: autophagin-1 cysteine protease inhibition – biochemical, fluorescence, set 2, dose response (AID 588584); assay type: functional
Phospholipase A2 = Phospholipase A2 (Homo sapiens, UniProt P04054); experiment: phospholipase A2 activity inhibition – biochemical, set 2, counter-screen for ATG4B inhibitor project, dose response (AID 588586); assay type: functional
Fatty acid synthase [2] = target: T1, Fatty acid synthase (Homo sapiens, UniProt P49327); experiment: inhibition of human FAS-TE enzyme activity – biochemical, kinetic fluorescence intensity, dose response (AID 624326); assay type: functional;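 note: rate of fluorescence rise from hydrolysis of a fluorogenic O-methyl fluorescein ester substrate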
[3] = target: T2, Corticotropin-releasing factor receptor 2/Corticotropin-releasing factor-binding protein (Homo sapiens, UniProt P24387+Q13324); experiment: activators of CRF receptor 2 with binding protein – uHTS hits, confirmation (AID 602473); assay type: functional; conditions: read-out: EC50_Mean
T2 sequence (Q13324 whole entry): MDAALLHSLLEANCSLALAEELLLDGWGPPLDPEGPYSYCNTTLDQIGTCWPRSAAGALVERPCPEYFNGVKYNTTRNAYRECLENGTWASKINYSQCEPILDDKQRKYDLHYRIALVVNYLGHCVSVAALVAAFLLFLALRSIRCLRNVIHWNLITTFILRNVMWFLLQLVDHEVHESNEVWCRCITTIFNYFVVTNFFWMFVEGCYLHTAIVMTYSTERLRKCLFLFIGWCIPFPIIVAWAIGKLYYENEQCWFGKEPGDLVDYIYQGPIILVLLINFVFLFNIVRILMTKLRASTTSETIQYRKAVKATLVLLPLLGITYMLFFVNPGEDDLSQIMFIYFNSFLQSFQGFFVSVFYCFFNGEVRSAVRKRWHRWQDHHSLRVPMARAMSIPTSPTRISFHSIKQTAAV
T2 sequence (P24387 whole entry): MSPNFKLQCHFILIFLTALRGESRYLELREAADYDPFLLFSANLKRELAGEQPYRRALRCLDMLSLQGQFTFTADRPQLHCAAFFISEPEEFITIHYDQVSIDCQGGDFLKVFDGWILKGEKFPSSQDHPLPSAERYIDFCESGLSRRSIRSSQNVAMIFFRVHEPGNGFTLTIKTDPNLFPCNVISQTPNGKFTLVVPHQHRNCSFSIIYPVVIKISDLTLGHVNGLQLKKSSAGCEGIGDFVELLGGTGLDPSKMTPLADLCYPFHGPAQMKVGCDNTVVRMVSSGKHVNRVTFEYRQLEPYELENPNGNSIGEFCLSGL

Keap1/Nrf2 = Keap1/Nrf2 (Homo sapiens, UniProt Q14145); experiment: disruptors of Keap1 binding to Nrf2 peptide – biochemical, fluorescence polarization, cherry-picked samples, dose response (AID 588683)
Fatty acid synthase [4] = target: T1, Fatty acid synthase; experiment: inhibition of human FAS-TE enzyme activity – biochemical, endpoint fluorescence intensity, uHTS hits, dose response (AID 624327); assay type: functional;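 note: fluorescence from hydrolysis of an O-methyl fluorescein acyl ester substrate by the enzyme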
[5] = target: T2, Corticotropin-releasing factor receptor 2/Corticotropin-releasing factor-binding protein; experiment: Dose Response confirmation of uHTS hits for small molecule antagonists of the CRF-binding protein and CRF-R2 receptor complex.; assay type: functional; conditions: read-out: IC50_Mean
[6] = target: T3, Tyrosine-protein phosphatase non-receptor type 22 (Homo sapiens, UniProt Q9Y2R2); experiment: PTPN22 lymphoid phosphatase activity blockers – biochemical, fluorescence intensity, uHTS (AID 1779)
T3 sequence (Q9Y2R2 whole entry): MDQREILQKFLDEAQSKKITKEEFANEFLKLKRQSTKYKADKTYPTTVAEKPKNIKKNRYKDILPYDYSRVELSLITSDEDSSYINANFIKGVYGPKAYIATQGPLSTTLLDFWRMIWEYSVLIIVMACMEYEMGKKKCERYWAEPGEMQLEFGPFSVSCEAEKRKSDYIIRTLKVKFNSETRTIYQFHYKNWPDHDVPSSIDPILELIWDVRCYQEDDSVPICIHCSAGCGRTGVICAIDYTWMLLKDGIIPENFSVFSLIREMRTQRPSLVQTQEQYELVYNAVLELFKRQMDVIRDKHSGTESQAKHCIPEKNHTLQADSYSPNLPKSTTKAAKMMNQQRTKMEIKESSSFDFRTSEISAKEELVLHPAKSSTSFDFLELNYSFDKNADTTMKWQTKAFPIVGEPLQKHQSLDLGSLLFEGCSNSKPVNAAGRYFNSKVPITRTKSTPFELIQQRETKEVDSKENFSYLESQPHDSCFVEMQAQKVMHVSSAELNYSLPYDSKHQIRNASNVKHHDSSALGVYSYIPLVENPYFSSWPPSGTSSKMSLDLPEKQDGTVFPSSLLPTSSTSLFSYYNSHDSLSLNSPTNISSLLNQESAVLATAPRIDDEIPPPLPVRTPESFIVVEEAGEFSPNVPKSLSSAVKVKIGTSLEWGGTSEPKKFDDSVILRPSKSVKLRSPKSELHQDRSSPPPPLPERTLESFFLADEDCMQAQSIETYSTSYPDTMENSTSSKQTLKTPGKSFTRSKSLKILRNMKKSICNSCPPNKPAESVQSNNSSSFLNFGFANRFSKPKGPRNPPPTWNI

[7] = target: T3, Tyrosine-protein phosphatase non-receptor type 22; experiment: SAR LYP1 Fluorescent Assay using OMFP substrate for In Vitro dose response studies - Set 3. [Related pubchem assays (depositor defined):AID1779, AID1784, AID2140, AID2686]; assay type: functional
[8] = target: T4, Heat shock factor protein 1 (Mus musculus, UniProt P38532); experiment: enhancement of HSF1-driven luciferase signal – cell-based, NIH3T3, luminescence, dose retest, confirmation (AID 435004); assay type: functional;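 note: stress induced by proteasome inhibitor MG132 added 30 min after compound; luciferase reporter driven by HSF1 response element in NIH3T3 cells; actives raise luminescence as potentiators of the MG132 stress response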
T4 sequence (P38532 whole entry): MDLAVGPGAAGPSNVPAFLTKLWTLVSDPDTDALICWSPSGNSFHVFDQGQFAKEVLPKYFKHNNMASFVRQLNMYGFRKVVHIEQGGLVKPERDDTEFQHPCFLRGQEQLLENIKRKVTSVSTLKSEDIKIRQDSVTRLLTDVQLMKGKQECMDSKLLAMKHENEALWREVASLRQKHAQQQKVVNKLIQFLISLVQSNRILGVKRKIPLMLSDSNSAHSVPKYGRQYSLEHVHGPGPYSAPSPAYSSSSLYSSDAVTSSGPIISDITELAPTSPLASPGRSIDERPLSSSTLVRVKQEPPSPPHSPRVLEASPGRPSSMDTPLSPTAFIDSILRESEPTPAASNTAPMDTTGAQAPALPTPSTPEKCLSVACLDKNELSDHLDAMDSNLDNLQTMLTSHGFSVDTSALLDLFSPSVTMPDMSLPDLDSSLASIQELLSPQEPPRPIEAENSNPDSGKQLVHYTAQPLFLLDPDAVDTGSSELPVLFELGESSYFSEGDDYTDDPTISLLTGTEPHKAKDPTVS

[9] = target: T3, Tyrosine-protein phosphatase non-receptor type 22; experiment: PubChem AID 2140
[10] = target: Tyrosine-protein phosphatase non-receptor type 12 (Homo sapiens, UniProt Q05209); experiment: SAR Selectivity Analysis of small molecule inhibitors of PEST using pCAP in a fluorescence assay. [Related pubchem assays (depositor defined):AID1779, AID1784, AID2135]; assay type: functional
[11] = target: T3, Tyrosine-protein phosphatase non-receptor type 22; experiment: PubChem AID 2135
[12] = target: T5, Apoptotic protease-activating factor 1 (Homo sapiens, UniProt O14727); experiment: activation of Apaf-1 mediated apoptosis – fluorescent, uHTS hits, dose response (AID 588554); assay type: functional
T5 sequence (O14727 whole entry): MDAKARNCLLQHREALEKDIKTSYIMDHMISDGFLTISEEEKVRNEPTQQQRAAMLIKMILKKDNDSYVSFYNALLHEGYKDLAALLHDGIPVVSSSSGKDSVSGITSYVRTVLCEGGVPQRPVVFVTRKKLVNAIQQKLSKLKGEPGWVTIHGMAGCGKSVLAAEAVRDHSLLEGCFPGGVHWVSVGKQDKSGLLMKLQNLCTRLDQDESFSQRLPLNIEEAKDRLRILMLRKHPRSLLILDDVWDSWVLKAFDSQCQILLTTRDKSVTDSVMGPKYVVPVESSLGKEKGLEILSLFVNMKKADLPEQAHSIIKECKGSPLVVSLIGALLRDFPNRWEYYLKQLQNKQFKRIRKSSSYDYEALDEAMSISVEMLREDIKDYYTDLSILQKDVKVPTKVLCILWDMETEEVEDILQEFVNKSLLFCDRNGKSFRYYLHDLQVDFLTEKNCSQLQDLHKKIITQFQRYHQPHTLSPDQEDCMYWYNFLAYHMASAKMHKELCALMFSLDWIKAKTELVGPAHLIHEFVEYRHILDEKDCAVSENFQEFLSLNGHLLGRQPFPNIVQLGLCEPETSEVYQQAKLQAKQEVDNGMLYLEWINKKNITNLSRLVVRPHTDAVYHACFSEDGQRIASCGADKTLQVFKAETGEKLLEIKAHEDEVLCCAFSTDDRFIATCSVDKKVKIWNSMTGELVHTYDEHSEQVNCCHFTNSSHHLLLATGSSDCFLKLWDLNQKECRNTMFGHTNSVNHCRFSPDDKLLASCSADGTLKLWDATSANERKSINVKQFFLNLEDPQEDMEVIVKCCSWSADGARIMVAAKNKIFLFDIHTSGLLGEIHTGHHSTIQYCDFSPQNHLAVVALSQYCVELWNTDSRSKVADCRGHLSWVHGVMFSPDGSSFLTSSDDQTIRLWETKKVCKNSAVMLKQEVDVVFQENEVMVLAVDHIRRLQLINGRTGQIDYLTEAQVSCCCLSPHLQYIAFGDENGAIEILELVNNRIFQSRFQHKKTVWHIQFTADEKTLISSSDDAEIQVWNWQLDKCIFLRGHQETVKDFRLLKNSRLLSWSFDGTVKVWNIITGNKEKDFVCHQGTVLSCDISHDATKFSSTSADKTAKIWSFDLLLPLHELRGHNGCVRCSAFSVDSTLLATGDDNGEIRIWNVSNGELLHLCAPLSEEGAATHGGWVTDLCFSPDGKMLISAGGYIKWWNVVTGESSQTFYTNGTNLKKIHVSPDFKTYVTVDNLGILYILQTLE

[13] = target: T3, Tyrosine-protein phosphatase non-receptor type 22; assay type: functional
[14] = target: T6, Tyrosine-protein phosphatase non-receptor type 7 (Homo sapiens, UniProt P35236); experiment: inhibition of hematopoietic tyrosine phosphatase HePTP – biochemical, set 2, SAR follow-up (AID 449736); assay type: functional
T6 sequence (P35236 whole entry): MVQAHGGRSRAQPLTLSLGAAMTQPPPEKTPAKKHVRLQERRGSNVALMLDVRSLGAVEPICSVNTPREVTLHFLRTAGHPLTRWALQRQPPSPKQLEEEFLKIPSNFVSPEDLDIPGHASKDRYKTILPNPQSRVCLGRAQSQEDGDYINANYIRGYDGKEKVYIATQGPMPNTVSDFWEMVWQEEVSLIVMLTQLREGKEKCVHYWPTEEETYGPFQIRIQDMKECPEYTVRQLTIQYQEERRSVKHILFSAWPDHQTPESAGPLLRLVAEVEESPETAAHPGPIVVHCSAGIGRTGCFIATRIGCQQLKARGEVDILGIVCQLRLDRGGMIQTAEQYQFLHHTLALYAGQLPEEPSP

[15] = target: T3, Tyrosine-protein phosphatase non-receptor type 22; experiment: SAR LYP1 Fluorescent Assay using pCAP substrate for In Vitro dose response studies - Set 2. [Related pubchem assays (depositor defined):AID1779, AID1784, AID2135, AID449727]; assay type: functional
[16] = target: T3, Tyrosine-protein phosphatase non-receptor type 22; experiment: SAR LYP1 Fluorescent Assay using OMFP substrate for In Vitro dose response studies - Set 2. [Related pubchem assays (depositor defined):AID1779, AID1784, AID2140, AID449726, AID488869]; assay type: functional
[17] = target: T6, Tyrosine-protein phosphatase non-receptor type 7; assay type: functional
[18] = target: T3, Tyrosine-protein phosphatase non-receptor type 22; assay type: functional; remark: listed apart in the source

T1 sequence (P49327 whole entry): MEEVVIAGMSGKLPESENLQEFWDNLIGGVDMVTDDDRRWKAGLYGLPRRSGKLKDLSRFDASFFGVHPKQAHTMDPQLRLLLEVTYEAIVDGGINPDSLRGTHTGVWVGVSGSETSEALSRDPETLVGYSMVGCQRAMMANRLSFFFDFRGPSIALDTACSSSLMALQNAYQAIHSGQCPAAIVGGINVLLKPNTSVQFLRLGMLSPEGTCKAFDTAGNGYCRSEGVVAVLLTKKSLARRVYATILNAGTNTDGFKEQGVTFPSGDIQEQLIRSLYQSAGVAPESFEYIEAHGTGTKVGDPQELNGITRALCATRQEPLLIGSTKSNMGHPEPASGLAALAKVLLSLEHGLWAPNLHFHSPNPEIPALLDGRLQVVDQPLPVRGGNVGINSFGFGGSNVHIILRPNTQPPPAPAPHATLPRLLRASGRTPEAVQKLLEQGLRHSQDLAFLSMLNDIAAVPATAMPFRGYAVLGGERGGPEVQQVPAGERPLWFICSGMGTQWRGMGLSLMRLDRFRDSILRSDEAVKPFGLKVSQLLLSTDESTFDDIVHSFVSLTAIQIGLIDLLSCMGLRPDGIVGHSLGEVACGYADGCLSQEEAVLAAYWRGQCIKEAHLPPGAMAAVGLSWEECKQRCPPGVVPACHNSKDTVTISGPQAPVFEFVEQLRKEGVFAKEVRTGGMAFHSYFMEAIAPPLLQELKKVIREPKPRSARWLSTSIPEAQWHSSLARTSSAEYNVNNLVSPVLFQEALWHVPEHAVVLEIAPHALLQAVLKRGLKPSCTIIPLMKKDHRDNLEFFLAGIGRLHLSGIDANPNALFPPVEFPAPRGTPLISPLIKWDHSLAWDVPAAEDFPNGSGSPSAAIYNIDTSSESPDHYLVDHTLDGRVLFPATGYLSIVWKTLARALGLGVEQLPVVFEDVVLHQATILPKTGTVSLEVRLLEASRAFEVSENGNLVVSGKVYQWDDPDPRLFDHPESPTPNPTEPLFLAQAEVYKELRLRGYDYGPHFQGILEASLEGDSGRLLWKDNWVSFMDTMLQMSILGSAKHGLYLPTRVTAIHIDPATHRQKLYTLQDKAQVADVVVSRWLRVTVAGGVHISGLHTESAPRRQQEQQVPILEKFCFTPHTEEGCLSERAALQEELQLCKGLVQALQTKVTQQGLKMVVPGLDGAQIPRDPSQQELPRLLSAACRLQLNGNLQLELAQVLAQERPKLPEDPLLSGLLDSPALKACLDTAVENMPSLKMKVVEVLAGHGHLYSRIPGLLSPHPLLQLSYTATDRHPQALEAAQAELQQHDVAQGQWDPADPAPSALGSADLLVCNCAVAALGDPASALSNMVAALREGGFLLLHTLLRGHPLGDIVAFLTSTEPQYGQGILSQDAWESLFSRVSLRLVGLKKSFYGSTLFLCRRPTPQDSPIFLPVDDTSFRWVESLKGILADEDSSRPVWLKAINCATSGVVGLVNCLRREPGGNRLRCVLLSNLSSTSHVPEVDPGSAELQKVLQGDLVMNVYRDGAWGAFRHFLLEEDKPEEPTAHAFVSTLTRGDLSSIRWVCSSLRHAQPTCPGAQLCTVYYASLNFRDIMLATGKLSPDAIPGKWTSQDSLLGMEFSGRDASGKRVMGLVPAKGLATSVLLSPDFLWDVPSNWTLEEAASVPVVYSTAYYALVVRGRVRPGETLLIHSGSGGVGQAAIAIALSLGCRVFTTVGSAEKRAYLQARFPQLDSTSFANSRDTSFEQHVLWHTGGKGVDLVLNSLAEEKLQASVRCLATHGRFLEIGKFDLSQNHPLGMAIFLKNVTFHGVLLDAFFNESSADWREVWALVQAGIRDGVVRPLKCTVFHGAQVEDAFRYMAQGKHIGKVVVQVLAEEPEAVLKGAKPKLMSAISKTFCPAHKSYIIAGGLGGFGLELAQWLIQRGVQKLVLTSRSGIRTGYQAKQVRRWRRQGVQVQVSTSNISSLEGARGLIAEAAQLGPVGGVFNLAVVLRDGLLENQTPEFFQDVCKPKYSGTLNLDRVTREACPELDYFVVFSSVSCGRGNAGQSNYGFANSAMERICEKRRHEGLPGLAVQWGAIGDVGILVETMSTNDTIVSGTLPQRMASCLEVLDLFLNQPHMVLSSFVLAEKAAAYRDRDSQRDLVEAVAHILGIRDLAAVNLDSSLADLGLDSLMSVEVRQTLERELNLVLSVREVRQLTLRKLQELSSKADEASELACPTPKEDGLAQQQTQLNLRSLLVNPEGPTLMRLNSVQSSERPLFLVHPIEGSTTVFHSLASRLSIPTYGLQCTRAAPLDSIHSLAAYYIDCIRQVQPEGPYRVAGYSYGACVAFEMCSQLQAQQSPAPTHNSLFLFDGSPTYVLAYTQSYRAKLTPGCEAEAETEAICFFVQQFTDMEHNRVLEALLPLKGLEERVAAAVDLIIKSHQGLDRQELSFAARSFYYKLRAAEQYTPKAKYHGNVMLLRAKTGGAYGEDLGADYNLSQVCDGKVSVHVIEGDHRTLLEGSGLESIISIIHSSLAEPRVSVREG
Phospholipase A2, sequence (P04054 whole entry): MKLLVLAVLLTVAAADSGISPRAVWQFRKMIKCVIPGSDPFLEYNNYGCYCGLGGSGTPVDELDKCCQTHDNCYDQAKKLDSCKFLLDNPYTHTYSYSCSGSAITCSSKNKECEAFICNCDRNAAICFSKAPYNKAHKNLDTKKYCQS
Tyrosine-protein phosphatase non-receptor type 12, sequence (Q05209 whole entry): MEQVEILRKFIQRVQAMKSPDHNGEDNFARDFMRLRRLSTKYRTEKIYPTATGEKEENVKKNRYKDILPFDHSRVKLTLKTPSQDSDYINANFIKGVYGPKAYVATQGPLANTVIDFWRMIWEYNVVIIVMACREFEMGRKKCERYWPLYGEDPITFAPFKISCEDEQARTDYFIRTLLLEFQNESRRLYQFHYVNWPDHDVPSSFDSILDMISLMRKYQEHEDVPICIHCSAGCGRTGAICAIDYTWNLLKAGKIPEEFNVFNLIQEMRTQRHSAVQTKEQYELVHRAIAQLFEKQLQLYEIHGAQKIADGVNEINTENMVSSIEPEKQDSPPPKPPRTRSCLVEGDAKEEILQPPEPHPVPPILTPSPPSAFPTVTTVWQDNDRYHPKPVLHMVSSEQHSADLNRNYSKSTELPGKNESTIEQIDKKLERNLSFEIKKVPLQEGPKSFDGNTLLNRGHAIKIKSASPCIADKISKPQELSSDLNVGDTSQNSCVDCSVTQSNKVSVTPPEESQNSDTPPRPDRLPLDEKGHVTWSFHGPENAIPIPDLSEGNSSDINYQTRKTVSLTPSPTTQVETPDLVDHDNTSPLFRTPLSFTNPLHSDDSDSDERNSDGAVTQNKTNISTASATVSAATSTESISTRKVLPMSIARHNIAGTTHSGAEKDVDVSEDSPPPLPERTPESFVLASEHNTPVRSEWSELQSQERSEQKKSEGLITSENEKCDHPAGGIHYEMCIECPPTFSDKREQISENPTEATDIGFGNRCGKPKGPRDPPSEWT
Keap1/Nrf2, sequence (Q16236 whole entry): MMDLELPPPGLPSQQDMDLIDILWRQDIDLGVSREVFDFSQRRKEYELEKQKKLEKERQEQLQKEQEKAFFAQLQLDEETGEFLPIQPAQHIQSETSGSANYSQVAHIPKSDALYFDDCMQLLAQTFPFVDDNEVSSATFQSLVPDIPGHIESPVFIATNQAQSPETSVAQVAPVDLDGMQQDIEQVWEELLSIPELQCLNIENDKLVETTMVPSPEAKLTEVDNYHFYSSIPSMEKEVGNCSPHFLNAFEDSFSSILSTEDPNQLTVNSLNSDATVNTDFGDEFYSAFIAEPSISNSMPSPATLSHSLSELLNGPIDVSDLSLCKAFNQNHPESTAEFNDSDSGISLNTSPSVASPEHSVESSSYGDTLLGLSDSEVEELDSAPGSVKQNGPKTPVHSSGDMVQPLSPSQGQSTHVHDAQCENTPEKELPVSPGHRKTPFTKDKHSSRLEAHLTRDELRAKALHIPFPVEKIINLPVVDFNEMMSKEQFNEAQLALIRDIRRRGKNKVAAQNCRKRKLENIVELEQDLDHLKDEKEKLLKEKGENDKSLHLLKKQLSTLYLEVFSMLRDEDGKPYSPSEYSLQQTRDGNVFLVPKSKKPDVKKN
Keap1/Nrf2, sequence (Q14145 whole entry): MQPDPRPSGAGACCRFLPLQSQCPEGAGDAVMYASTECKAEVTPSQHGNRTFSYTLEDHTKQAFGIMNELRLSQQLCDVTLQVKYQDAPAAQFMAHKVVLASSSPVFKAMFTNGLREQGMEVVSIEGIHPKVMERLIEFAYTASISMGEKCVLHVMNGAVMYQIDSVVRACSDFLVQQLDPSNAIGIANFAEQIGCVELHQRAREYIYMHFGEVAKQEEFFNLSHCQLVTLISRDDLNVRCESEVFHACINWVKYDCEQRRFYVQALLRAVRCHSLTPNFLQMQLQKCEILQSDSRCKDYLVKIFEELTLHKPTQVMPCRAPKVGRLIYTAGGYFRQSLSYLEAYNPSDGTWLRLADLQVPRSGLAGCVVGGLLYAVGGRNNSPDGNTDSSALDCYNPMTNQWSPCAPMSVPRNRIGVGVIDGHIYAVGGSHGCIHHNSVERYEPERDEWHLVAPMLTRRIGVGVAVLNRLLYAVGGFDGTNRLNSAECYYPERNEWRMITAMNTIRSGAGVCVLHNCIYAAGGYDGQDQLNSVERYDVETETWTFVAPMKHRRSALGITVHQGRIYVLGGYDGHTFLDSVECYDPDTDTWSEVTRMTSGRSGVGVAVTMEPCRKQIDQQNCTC
Cysteine protease ATG4B, sequence (Q9Y4P1 whole entry): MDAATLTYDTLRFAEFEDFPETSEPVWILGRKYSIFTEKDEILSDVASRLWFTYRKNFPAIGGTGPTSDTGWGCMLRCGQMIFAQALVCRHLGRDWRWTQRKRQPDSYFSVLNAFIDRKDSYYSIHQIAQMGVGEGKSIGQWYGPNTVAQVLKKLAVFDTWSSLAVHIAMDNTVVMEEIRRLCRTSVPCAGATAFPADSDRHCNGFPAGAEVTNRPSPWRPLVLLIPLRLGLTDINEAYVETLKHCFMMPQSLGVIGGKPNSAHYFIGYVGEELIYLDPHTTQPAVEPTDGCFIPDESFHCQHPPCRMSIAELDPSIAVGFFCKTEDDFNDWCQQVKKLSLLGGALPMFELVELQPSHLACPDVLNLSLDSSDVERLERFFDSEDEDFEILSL

CCn1c(=O)c2c3c(sc2n2c(S)nnc12)CCC3
active: AC50 (Escherichia coli) 24.2 µM

COc1ccc(OC)c(NC(=O)c2nnn(Cc3ccccc3C)c2N)c1
active: AC50 [1] 2.47 µM | IC50 (Cysteine protease ATG4B) 19.9 µM | IC50 (Phospholipase A2) 13.4 µM

COc1ccc(C(C)=NNc2ccc([N+](=O)[O-])cc2S(=O)(=O)Nc2ccccc2C(=O)O)c(OC)c1
active: IC50 (Fatty acid synthase [2]) 9.07 µM | EC50 [3] 38.6 µM | AC50 (Keap1/Nrf2) 25.7 µM | IC50 (Fatty acid synthase [4]) 13.3 µM | IC50 [5] 0.754 µM

N#C/C(=C\c1ccc(OCc2ccc(Cl)cc2)cc1)C(=O)Nc1cccc(C(=O)O)c1
active: IC50 [6] 8.62 µM | IC50 [7] 4.74 µM | EC50 [8] 10.9 µM | IC50 [9] 34.2 µM | IC50 [10] 2.91 µM | IC50 [11] 4.96 µM | EC50 [12] 20.8 µM | IC50 [13] 6.42 µM | IC50 [14] 0.651 µM | IC50 [15] 6.54 µM | IC50 [16] 3.77 µM | IC50 [17] 14.6 µM | IC50 [18] 6.86 µM
